What all share (format): in vivo
Assay [1] deals with Pseudomonas aeruginosa clinical isolate PAX11045. Nature of the assay: Murine pneumonia model, compound 1 in combination with ertapenem (Example 1). To be noted: 50 mg/kg alone, lung, p<0.001. The procedure: The efficacy and ED50 of the compound of formula (I) (“compound 1”) in combination with ertapenem was determined against Pseudomonas aeruginosa clinical isolate PAX11045 in a pneumonia model in mice. Colony counts in lung were determined at 20 hours post treatment.
Fresh overnight colonies of PAX11045 from a 5% Horse Blood Agar plate were suspended in 0.9% sterile saline to approximately 10^8 CFU/ml and further diluted to approximately 5×10^7 CFU/ml. Female mice (DBA/2, outbred, 18-22 g, Charles River) were anesthetized with 0.1 ml of Zoletil and inoculated via the nose with a pipette with 0.05 ml of the bacteria suspension containing approximately 10^6 CFU. 4 hours after inoculation, the mice were treated orally with 45 μl neurophen (20 mg ibuprofen/ml corresponding to approximately 30 mg/kg) as pain relief.
1 g of ertapenem (Invanz™, MSD Denmark Aps) was dissolved in 10 ml 0.9% sterile saline to a concentration of 100 mg/ml and further diluted with saline to 5 mg/ml. The mice were treated subcutaneously with 0.2 ml in the neck region with a single dose at 3 hours post infection corresponding to 50 mg/kg on the basis of a mean animal weight of 20 g.
(§1) The mice were treated subcutaneously with 0.2 ml in the neck region with a single dose at 4 hours post infection with a dose calculation based on a mean animal weight of 20 g.
(§2) Colony counts were determined post inoculation at 4 hours (untreated mice) and 24 hours (treated and vehicle-only treated mice). Immediately after the mice were sacrificed, the lungs were collected and frozen at −20° C. After thawing, the organs were homogenized in 1 ml 0.9% saline. Each sample was then 10 fold diluted in saline and 20 μl spots were applied on blood agar plates. All agar plates were incubated 18-24 hours at 35° C. in ambient air.
The CFU/ml in the inoculum was determined to 7.65 log10 CFU/ml corresponding to 6.35 log10 CFU/mouse.
At 4 hours after infection the mean log10 CFU/lung was 5.14 and the CFU level remained at a similar level after 24 hours in the vehicle-only group.

Assay [2] deals with Pseudomonas aeruginosa clinical isolate PA9349. Briefly: Murine pneumonia model, compound 1 in combination with ciprofloxacin (Example 3). To be noted: colistin 20 mg/kg alone, lung. The procedure:
Colony counts in lung were determined at 20 hours post treatment.
Fresh overnight colonies of PA9349 from a 5% Horse Blood Agar plate were suspended in 0.9% sterile saline to approximately 10^8 CFU/ml and further diluted to approximately 10^7 CFU/ml. Female mice (C57BL/6 […], outbred, 20-25 g, Hellenic Pasteur Institute) were anesthetized with ether and inoculated via the nose with a pipette with 0.05 ml of the bacteria suspension containing approximately 10^6 CFU. After inoculation, mice were treated with paracetamol suppositories as a pain relief.
The mice were treated subcutaneously with 0.2 ml in the neck region with a single dose at 3 hours post infection corresponding to 20 mg/kg on the basis of a mean animal weight of 20 g.
1 vial was further diluted with saline to 1, 0.8 and 0.4 mg/ml. The mice were treated subcutaneously with 0.25 ml (25 mg/kg dose) or 0.2 ml (for all other doses) in the neck region with a single dose at 4 hours post infection with a dose calculation based on a mean animal weight of 20 g.
as §2

Assay [3] deals with Pseudomonas aeruginosa clinical isolate PA18298. Briefly: Murine pneumonia model, compound 1 in combination with amikacin (Example 4). As to conditions: lung. The procedure:
The efficacy and ED50 of the compound of formula (I) (“compound 1”) in combination with amikacin was determined against Pseudomonas aeruginosa clinical isolate PA18298 in a pneumonia model in mice. Colony counts in lung were determined at 20 hours post treatment.
Fresh overnight colonies of PA18298 from a 5% Horse Blood Agar plate were suspended in 0.9% sterile saline to approximately 10^8 CFU/ml and further diluted to approximately 5×10^7 CFU/ml. Female mice (DBA/2, outbred, 18-22 g, Charles River) were anesthetized with 0.1 ml of Zoletil and inoculated via the nose with a pipette with 0.05 ml of the bacteria suspension containing approximately 10^6 CFU. 4 hours after inoculation, the mice were treated orally with 45 μl neurophen (20 mg ibuprofen/ml corresponding to approximately 30 mg/kg) as pain relief.
175 mg of amikacin (Sigma) were dissolved in 5 ml 0.9% sterile saline to a concentration of 35 mg/ml and further diluted with saline to 3 mg/ml. The mice were treated subcutaneously with 0.2 ml in the neck region with a single dose at 3 hours post infection corresponding to 30 mg/kg on the basis of a mean animal weight of 20 g.
One vial containing 10 mg of active compound 1 was dissolved in 2 ml 0.9% sterile saline to a concentration of 5 mg/ml and further diluted with saline […], 1, 0.55, 0.275 and 0.137 mg/ml. The mice were treated subcutaneously with 0.2 ml in the neck region with a single dose at 4 hours post infection with a dose calculation based on a mean animal weight of 20 g. Colistin was used as a control in the same manner with a fixed dose of 20 mg/kg.
as §2
The CFU/ml in the inoculum was determined to 7.4 log10 CFU/ml corresponding to 6.17 log10 CFU/mouse.
At 4 hours after inoculation the mean log 10 CFU/lung was 5.06 and the CFU level declined to 1.55 mean log 10 CFU/lung after 24 hours in the vehicle group.

Assay [4] shares this test system. Briefly: Murine pneumonia model, compound 1 alone (Reference 3). To be noted: 20 mg/kg, positive control, lungs, p<0.001. As for the experimental part: Efficacy in Murine Pneumonia Model Against Pseudomonas aeruginosa PA18298 and Estimation of ED50
The efficacy and ED50 of the compound of formula (I) (“compound 1”) was determined against Pseudomonas aeruginosa clinical isolate PA18298 in a pneumonia model in mice. Colony counts in the lungs were determined at 18-20 hours post treatment.
Fresh overnight colonies of PA18298 from a 5% Horse Blood Agar plate were suspended in 0.9% sterile saline to approximately 10^8 CFU/ml and further diluted to approximately 4×10^7 CFU/ml. Female mice (DBA/2, outbred, 18-22 g, Charles River) were anesthetized with 0.1 ml of Zoletil (tiletamine+zolazepam) and inoculated via the nose with a pipette with 0.05 ml of the bacteria suspension containing approximately 1×10^6 CFU. 4 hours after inoculation, the mice were treated orally with 45 μl neurophen (20 mg ibuprofen/ml corresponding to approximately 30 mg/kg) as pain relief.
One vial containing 10 mg of active compound 1 was dissolved in 2 ml 0.9% sterile saline to a concentration of 5 mg/ml and was further diluted with saline to 2, 1, 0.75, 0.55, 0.275 and 0.137 mg/ml. The mice were treated subcutaneously with 0.2 ml in the neck region with a single dose at 4 hours post infection with a dose calculation based on a mean animal weight of 20 g. As positive control colistin was used in the same manner with a fixed dose of 20 mg/kg.
Colony counts were determined post inoculation at 4 hours (untreated mice) and 24 hours (treated and vehicle-only treated mice). Immediately after the mice were sacrificed, the lungs were collected and frozen at −20° C. After thawing, the organs were homogenized in 1 ml 0.9% saline. Each sample was then 10-fold diluted in saline and 20 μl spots were applied on blood agar plates. All agar plates were incubated 18-48 hours at 35° C. in ambient air.
The CFU/ml in the inoculum was determined to 7.49 log10 CFU/ml corresponding to 6.20 log10 CFU/mouse.
At 4 hours after infection the mean log10 CFU/lung was 5.05 and the CFU level declined to 2.62 at 24 hours post inoculation in the vehicle-only group.

Assay [5] has as its system Pseudomonas aeruginosa clinical isolate PAX11045. Briefly: Murine pneumonia model, compound 1 in combination with azithromycin (Example 2). As to conditions: 50 mg/kg alone, lung. The procedure: The efficacy and ED50 of the compound of formula (I) (“compound 1”) in combination with azithromycin was determined against Pseudomonas aeruginosa clinical isolate PAX11045 in a pneumonia model in mice. Colony counts in lung were determined at 20 hours post treatment.
Fresh overnight colonies of PAX11045 from a 5% Horse Blood Agar plate were suspended in 0.9% sterile saline to approximately 10^8 CFU/ml and further diluted to approximately 5×10^7 CFU/ml. Female mice (DBA/2, outbred, 17-23 g, Charles River) were anesthetized with 0.1 ml of Zoletil and inoculated via the nose with a pipette with 0.05 ml of the bacteria suspension containing approximately 10^6 CFU. 4 hours after inoculation, the mice were treated orally with 45 μl neurophen (20 mg ibuprofen/ml corresponding to approximately 30 mg/kg) as pain relief.
480 mg of azithromycin (Zitromax™, Pfizer) were dissolved in 4.8 ml 0.9% sterile saline to a concentration of 100 mg/ml and further diluted with saline to 5 mg/ml. The mice were treated subcutaneously with 0.2 ml in the neck region with a single dose at 3 hours post infection corresponding to 50 mg/kg on the basis of a mean animal weight of 20 g.
as §1, §2

Take `C[C@@H](O)[C@H]1C(=O)N2C(C(=O)O)=C(S[C@@H]3CN[C@H](C(=O)Nc4cccc(C(=O)O)c4)C3)[C@H](C)[C@H]12` [ertapenem, reference compound]: the “effect on bacterial loads” value in assay [1] was “significant effect on reducing the bacterial loads”. On to colistin [reference compound], for which the “effect on bacterial loads” value in assay [2] is listed as “no or only slight effects on the bacterial loads”; in assay [3] (colistin 20 mg/kg, control), “some effects on reducing the bacterial loads”; in assay [4], “some effect on reducing the bacterial loads”.

Consider `NCC[C@H](O)C(=O)N[C@@H]1C[C@H](N)[C@@H](O[C@H]2O[C@H](CN)[C@@H](O)[C@H](O)[C@H]2O)[C@H](O)[C@H]1O[C@H]1O[C@H](CO)[C@@H](O)[C@H](N)[C@H]1O` [amikacin, reference compound], for which the “effect on bacterial loads” value in assay [3] (amikacin 30 mg/kg alone) was “some effects on reducing the bacterial loads”. `CC[C@H]1OC(=O)[C@H](C)[C@@H](O[C@H]2C[C@@](C)(OC)[C@@H](O)[C@H](C)O2)[C@H](C)[C@@H](O[C@@H]2O[C@H](C)C[C@H](N(C)C)[C@H]2O)[C@](C)(O)C[C@@H](C)CN(C)[C@H](C)[C@@H](O)[C@]1(C)O` [azithromycin, reference compound]: in assay [5], the “effect on bacterial loads” value is given as “no effect on the bacterial loads”.

The values above are taken from US9814754B2, “Combinations with a backbone-cyclized peptide” (POLYPHOR AG, priority 2012, dated 2017).
